The values that follow come from patent publication US8735364B2, “Antisense modulation of apolipoprotein B expression” (Genzyme Corporation, priority 2001, dated 2014).

Series [1] is described as follows: Serum AST and ALT levels, high fat fed mice, 6 week study. It is filed as in vivo, mouse. To be noted: daily oral dose of 20 mg/kg. Here is the method: (§1) Male C57BL/6 mice (n=8) receiving a high fat diet (60% kcal fat) were evaluated over the course of 6 weeks for the effects of treatment with the antisense oligonucleotide, ISIS 147764. Control animals received saline treatment (50 mg/kg). A subset of animals received a daily oral dose (20 mg/kg) atorvastatin calcium (Lipitor®, Pfizer Inc.). All mice, except atorvastatin-treated animals, were dosed intraperitoneally every three days (twice a week), after fasting overnight, with 5, 25, 50 mg/kg ISIS 147764 (SEQ ID No: 109) or saline (50 mg/kg) for six weeks. Serum cholesterol and lipoproteins were analyzed at 0, 2 and 6 week interim timepoints. At study termination, animals were sacrificed 48 hours after the final injections and evaluated for levels of target mRNA levels in liver, cholesterol, lipoprotein, triglyceride, liver enzyme (AST and ALT) and serum glucose levels as well as body, liver, spleen and fat pad weights.
Male C57BL/6 mice (n=8) receiving a high fat diet (60% kcal fat) were evaluated over the course of 6 weeks for the effects of ISIS 147764 on liver enzyme (AST and ALT) levels. Control animals received saline treatment (50 mg/kg). Mice were dosed intraperitoneally every three days (twice a week), after fasting overnight, with 5, 25, 50 mg/kg ISIS 147764 (SEQ ID No: 109) or saline (50 mg/kg) for six weeks.
Values in the table are expressed as IU/L. Increased levels of the liver enzymes ALT and AST indicate toxicity and liver damage.

Series [2] in a line: Body, spleen, liver and fat pad weight, high fat fed mice, 6 week study. It is filed as in vivo, mouse. As to conditions: 20 mg/kg daily, compared to saline-treated controls. Here is the method: as §1
Male C57BL/6 mice (n=8) receiving a high fat diet (60% kcal fat) were evaluated over the course of 6 weeks for the effects of ISIS 147764 on body, spleen, liver and fat pad weight. Control animals received saline treatment (50 mg/kg). Mice were dosed intraperitoneally every three days (twice a week), after fasting overnight, with 5, 25, 50 mg/kg ISIS 147764 (SEQ ID No: 109) or saline (50 mg/kg) for six weeks.
At study termination, animals were sacrificed 48 hours after the final injections and body, spleen, liver and fat pad weights were measured. Values are expressed as percent change in body weight or ogan weight compared to the saline-treated control animals. Data from mice treated with atorvastatin at a daily dose of 20 mg/kg are also shown in the table Negative values indicated a decrease in weight.

A short description of series [3]: Liver enzyme levels in ApoE knockout mice. It is filed as in vivo, mouse. The text has this:
Female ApoE knockout mice ranged in age from 5 to 7 weeks and were placed on a normal diet for 2 weeks before study initiation. ApoE knockout mice were then fed ad libitum a 60% fat diet, with 0.15% added cholesterol to induce dyslipidemia and obesity. […]
At study termination and forty eight hours after the final injections, animals were sacrificed and evaluated for target mRNA levels in liver by RT-PCR methods verified by Northern Blot analysis, glucose levels, cholesterol and lipid levels by HPLC separation methods and triglyceride and liver enzyme levels (perfomed by LabCorp Preclinical Services; San Diego, Calif.). Data are normalized to saline controls.

Series [4] deals with human apolipoprotein B mRNA. The series can be described thus: Inhibition of human apolipoprotein B mRNA levels in HepG2 cells, quantitative real-time PCR. The series is classed as cell-based. More on the design: %INHIB of human apolipoprotein B mRNA levels: concentration or dose not given beside the values. To be noted: for %INHIB of human apolipoprotein B mRNA levels: averages from two experiments. Here is the method:
The human hepatoblastoma cell line HepG2 was obtained from the American Type Culture Collection (Manassas, Va.). HepG2 cells were routinely cultured in Eagle's MEM supplemented with 10% fetal calf serum, non-essential amino acids, and 1 mM sodium pyruvate (Gibco/Life Technologies, Gaithersburg, Md.). Cells were routinely passaged by trypsinization and dilution when they reached 90% confluence. Cells were seeded into 96-well plates (Falcon-Primaria #3872) at a density of 7000 cells/well for use in RT-PCR analysis.
When cells reached 80% confluency, they were treated with oligonucleotide. For cells grown in 96-well plates, wells were washed once with 200 μL OPTI-MEM™-1 reduced-serum medium (Gibco BRL) and then treated with 130 μL of OPTI-MEM™-1 containing 3.75 μg/mL LIPOFECTIN™ (Gibco BRL) and the desired concentration of oligonucleotide. After 4-7 hours of treatment, the medium was replaced with fresh medium. Cells were harvested 16-24 hours after oligonucleotide treatment.
Quantitation of apolipoprotein B mRNA levels was determined by real-time quantitative PCR using the ABI PRISM™ 7700 Sequence Detection System (PE-Applied Biosystems, Foster City, Calif.) according to manufacturer's instructions. This is a closed-tube, non-gel-based, fluorescence detection system which allows high-throughput quantitation of polymerase chain reaction (PCR) products in real-time. As opposed to standard PCR, in which amplification products are quantitated after the PCR is completed, products in real-time quantitative PCR are quantitated as they accumulate. This is accomplished by including in the PCR reaction an oligonucleotide probe that anneals specifically between the forward and reverse PCR primers, and contains two fluorescent dyes. A reporter dye (e.g., JOE, FAM, or VIC, obtained from either Operon Technologies Inc., Alameda, Calif. or PE-Applied Biosystems, Foster City, Calif.) is attached to the 5′ end of the probe and a quencher dye (e.g., TAMRA, obtained from either Operon Technologies Inc., Alameda, Calif. or PE-Applied Biosystems, Foster City, Calif.) is attached to the 3′ end of the probe. When the probe and dyes are intact, reporter dye emission is quenched by the proximity of the 3′ quencher dye. During amplification, annealing of the probe to the target sequence creates a substrate that can be cleaved by the 5′-exonuclease activity of Taq polymerase. […] With each cycle, additional reporter dye molecules are cleaved from their respective probes, and the fluorescence intensity is monitored at regular intervals by laser optics built into the ABI PRISM™ 7700 Sequence Detection System. In each assay, a series of parallel reactions containing serial dilutions of mRNA from untreated control samples generates a standard curve that is used to quantitate the percent inhibition after antisense oligonucleotide treatment of test samples.
PCR reagents were obtained from PE-Applied Biosystems, Foster City, Calif. RT-PCR reactions were carried out by adding 25 μL PCR cocktail (1× TAQMAN™ buffer A, 5.5 mM MgCl2, 300 μM each of DATP, dCTP and dGTP, 600 μM of dUTP, 100 nM each of forward primer, reverse primer, and probe, 20 Units RNAse inhibitor, 1.25 Units AMPLITAQ GOLD™, and 12.5 Units MuLV reverse transcriptase) to 96 well plates containing 25 μL total RNA solution. The RT reaction was carried out by incubation for 30 minutes at 48° C. Following a 10 minute incubation at 95° C. to activate the AMPLITAQ GOLD™, 40 cycles of a two-step PCR protocol were carried out: 95° C. for 15 seconds (denaturation) followed by 60° C. for 1.5 minutes (annealing/extension).
Gene target quantities obtained by real time RT-PCR are normalized using either the expression level of GAPDH, a gene whose expression is constant, or by quantifying total RNA using RiboGreen™ (Molecular Probes, Inc. Eugene, Oreg.). GAPDH expression is quantified by real time RT-PCR, by being run simultaneously with the target, multiplexing, or separately. […]

Oligonucleotides are written 5' to 3', each unit as a sugar letter and its base; * is a phosphorothioate linkage, no mark a phosphodiester; rarer units and linkages stand in square brackets, end groups in braces. Plain capitals give the bases only. e = 2'-O-(2-methoxyethyl) (MOE); [5mC] = 5-methylcytosine; d = 2'-deoxy (DNA)

The compound `CC(C)c1c(C(=O)Nc2ccccc2)c(-c2ccccc2)c(-c2ccc(F)cc2)n1CC[C@@H](O)C[C@@H](O)CC(=O)O` [atorvastatin, atorvastatin calcium, reference compound] showed an AST levels in series [1] (printed in the ALT paragraph) of 40 IU/L. Besides, in series [1] (saline control 65 IU/L), the AST levels was found to be 85 IU/L. Further, in series [2], the “Fat pad weight Percent Change” value stood at 7%, the “Liver weight Percent Change” value came to 15%, the “Spleen weight Percent Change” value is recorded as 10% and the “Total Body Wt. Percent Change” value turned out to be 1%. Moreover, the “Liver Enzyme Levels ALT” value in series [3] (20 mg/kg daily, Control 56) turned out to be 76 IU/L. Further, the “Liver Enzyme Levels AST” value in series [3] (Control 55) is 75 IU/L.

For “147784 (antisense e[5mC]*eA*eG*e[5mC]*eG*d[5mC]*d[5mC]*dA*dG*d[5mC]*dA*dG*d[5mC]*dG*d[5mC]*e[5mC]*eA*eG*e[5mC]*eA) [compound 147784]”, the “%INHIB of human apolipoprotein B mRNA levels” value (shortened to “%INHIB”) in series [4] came to 70%.

Take “147792 (antisense eG*eG*eA*e[5mC]*eA*d[5mC]*d[5mC]*dT*d[5mC]*dA*dA*dT*d[5mC]*dA*dG*e[5mC]*eT*eG*eT*eG) [compound 147792]”: the “%INHIB” value in series [4] came to 26%.

As to “147828 (antisense eA*e[5mC]*eG*eT*eT*dA*dT*d[5mC]*d[5mC]*dT*dT*dG*dA*dG*dT*e[5mC]*e[5mC]*e[5mC]*eT*eG) [compound 147828]”, the “%INHIB” value in series [4] is 12%.

With “147788 (antisense eT*eT*eT*e[5mC]*eT*dG*dT*dT*dG*d[5mC]*d[5mC]*dA*d[5mC]*dA*dT*eT*eG*e[5mC]*e[5mC]*e[5mC]) [compound 147788]”, the “Percent Inhibition of human apolipoprotein B mRNA levels” value in series [4] (50 nM) was determined as 54%; in series [4] (150 nM), 63%; in series [4] (250 nM), 72%. The “%INHIB” value in series [4] was 95%.

As to “147823 (antisense eT*eG*e[5mC]*e[5mC]*e[5mC]*dT*dG*d[5mC]*dA*dG*d[5mC]*dT*dT*d[5mC]*dA*e[5mC]*eT*eG*eA*eA) [compound 147823]”, the “%INHIB” value in series [4] was 19%.

In the case of “147815 (antisense eT*eG*eG*e[5mC]*e[5mC]*dT*dA*d[5mC]*d[5mC]*dA*dG*dA*dG*dA*d[5mC]*eA*eG*eG*eT*eA) [compound 147815]”, the “%INHIB” value in series [4] came out at 45%.

As for “147833 (antisense eA*eT*eG*eA*eT*dA*d[5mC]*dA*d[5mC]*dA*dA*dT*dA*dA*dA*eG*eA*e[5mC]*eT*e[5mC]) [compound 147833]”, the “%INHIB” value in series [4] is reported as 25%.

For the compound “147820 (antisense eG*eA*eA*e[5mC]*eA*d[5mC]*dA*dT*dA*dG*d[5mC]*d[5mC]*dG*dA*dA*eT*eG*e[5mC]*e[5mC]*eG) [compound 147820]”, the figures for the “Percent Inhibition of human apolipoprotein B mRNA levels” value in series [4] (50 nM), in series [4] (150 nM) and in series [4] (250 nM) were 10%, 0% and 73%, respectively. In series [4], the “%INHIB” value was determined as 100%.

Turning to “147807 (antisense eG*eG*e[5mC]*eG*eT*dA*dG*dA*dG*dA*d[5mC]*d[5mC]*d[5mC]*dA*dT*e[5mC]*eA*e[5mC]*eA*eT) [compound 147807]”, the “%INHIB” value in series [4] amounted to 25%.

With “147796 (antisense eG*e[5mC]*eA*eG*e[5mC]*d[5mC]*dA*dG*dT*d[5mC]*dG*d[5mC]*dT*dT*dA*eT*e[5mC]*eT*e[5mC]*e[5mC]) [compound 147796]”, the “%INHIB” value in series [4] amounted to 8%.
